In ChEMBL document CHEMBL5608174, “Synthesis and biological evaluation of 4-phenyl-5-quinolinyl substituted isoxazole analogues as potent cytotoxic and tubulin polymerization inhibitors against ESCC” (Eur J Med Chem, 2024):

Columns and labels:
MGC-803 = experiment: Antiproliferative activity against human MGC-803 cells assessed as inhibition of cell proliferation incubated for 48 hrs by MTT assay; assay type: functional, cell-based; conditions: MGC-803, 48 h
HCT-116 = experiment: cells; conditions: Homo sapiens, HCT-116, 48 h
Description: Antiproliferative activity against human HCT-116 cells assessed as inhibition of cell proliferation incubated for 48 hrs by MTT assay

KYSE-30 = experiment: cells; conditions: Homo sapiens, KYSE-30, 48 h
Description: Antiproliferative activity against human KYSE-30 cells assessed as inhibition of cell proliferation incubated for 48 hrs by MTT assay

[1] = Cytotoxicity against HUVEC cells assessed as inhibition of cell growth incubated for 48 hrs by MTT assay; assay type: toxicity, cell-based; conditions: human
[2] = Toxicity in female BALB/c-nu nude mouse xenografted with human KYSE-30 cells assessed as effect on body weight at 6 to 12 mg/kg, ip administered for 15 days; assay type: organism-based; conditions: in vivo, 360 h, dose 6-12 mg/kg, time 15 day

For CCOc1ccc(-c2[nH]nnc2-c2ccnc3ccccc23)cc1, the IC50 (MGC-803) was 59 nM, the IC50 (HCT-116) was 381 nM and the IC50 (KYSE-30) was 287 nM.

In the case of CCCOc1ccc(-c2cn[nH]c2-c2ccnc3ccccc23)cc1, the IC50 (MGC-803) is reported as 875 nM, the IC50 (HCT-116) is reported as 6040 nM and the IC50 (KYSE-30) is reported as 6410 nM.

With COc1ccc(-c2cn[nH]c2-c2ccnc3ccccc23)cc1 the IC50 (MGC-803) was 199 nM, the IC50 (HCT-116) was 958 nM and the IC50 (KYSE-30) was 1020 nM.

For CC(C)Oc1ccc(-c2nn[nH]c2-c2ccnc3ccccc23)cc1, the IC50 (MGC-803) was 3360 nM, the IC50 (HCT-116) was 705 nM and the IC50 (KYSE-30) was 244 nM.

For c1ccc2c(-c3[nH]nnc3-c3ccc4[nH]ccc4c3)ccnc2c1, the IC50 (MGC-803) was 188 nM, the IC50 (HCT-116) was 211 nM and the IC50 (KYSE-30) was 178 nM.

For CCCOc1ccc(-c2cn[nH]c2-c2cc(C)nc3ccccc23)cc1, the IC50 (MGC-803) was 130 nM, the IC50 (HCT-116) was 90 nM and the IC50 (KYSE-30) was over 800 nM.

With COc1ccccc1-c1cn[nH]c1-c1cc(C)nc2ccccc12 the IC50 (MGC-803) was over 800 nM, the IC50 (HCT-116) was over 800 nM and the IC50 (KYSE-30) was over 800 nM.

In the case of c1ccc2c(-c3[nH]nnc3-c3ccc4c(c3)CCO4)ccnc2c1, the IC50 (MGC-803) is reported as 5690 nM, the IC50 (HCT-116) is reported as over 10000 nM and the IC50 (KYSE-30) is reported as 6370 nM.

Molecule Cc1cc(-c2[nH]ncc2-c2ccc3c(c2)CCO3)c2ccccc2n1 has an IC50 (MGC-803) of 3240 nM, an IC50 (HCT-116) of 740 nM and an IC50 (KYSE-30) of 491 nM.

Molecule c1ccc2c(-c3[nH]nnc3-c3ccc4oc5ccccc5c4c3)ccnc2c1 has an IC50 (MGC-803) of over 10000 nM, an IC50 (HCT-116) of over 10000 nM and an IC50 (KYSE-30) of over 10000 nM.

c1ccc2c(-c3[nH]nnc3-c3ccc4occc4c3)ccnc2c1 gave an IC50 (MGC-803) of 8460 nM, an IC50 (HCT-116) of 7760 nM and an IC50 (KYSE-30) of 3400 nM.

COc1ccc(-c2cnoc2-c2ccnc3ccccc23)cc1 showed an IC50 (MGC-803) of 24 nM, an IC50 (HCT-116) of 982 nM and an IC50 (KYSE-30) of 354 nM.

In the case of CCOc1ccc(-c2cn[nH]c2-c2ccnc3ccccc23)cc1, the IC50 (MGC-803) is reported as 249 nM, the IC50 (HCT-116) is reported as 437 nM and the IC50 (KYSE-30) is reported as 3170 nM.

Work on COc1ccc(-c2cnoc2-c2cc(C)nc3ccccc23)cc1[N+](=O)[O-] yielded an IC50 (MGC-803) of 65 nM, an IC50 (HCT-116) of 54 nM and an IC50 (KYSE-30) of 103 nM.

Molecule COc1ccccc1-c1cn[nH]c1-c1ccnc2ccccc12 has an IC50 (MGC-803) of over 10000 nM, an IC50 (HCT-116) of over 10000 nM and an IC50 (KYSE-30) of over 10000 nM.

Work on Cc1cc(-c2oncc2-c2ccc3c(c2)CCO3)c2ccccc2n1 yielded an IC50 (MGC-803) of 410 nM, an IC50 (HCT-116) of over 800 nM and an IC50 (KYSE-30) of over 800 nM.

Cc1cccc(-c2nn[nH]c2-c2ccnc3ccccc23)c1 showed an IC50 (MGC-803) of over 10000 nM, an IC50 (HCT-116) of over 10000 nM and an IC50 (KYSE-30) of over 10000 nM.

COc1cccc(-c2cn[nH]c2-c2ccnc3ccccc23)c1 gave an IC50 (MGC-803) of 1540 nM, an IC50 (HCT-116) of 5530 nM and an IC50 (KYSE-30) of 3190 nM.

COc1cccc(-c2cnoc2-c2cc(C)nc3ccccc23)c1 gave an IC50 (MGC-803) of 101 nM, an IC50 (HCT-116) of 288 nM and an IC50 (KYSE-30) of 349 nM.

CCOc1ccc(-c2cn[nH]c2-c2cc(C)nc3ccccc23)cc1 showed an IC50 at 48 h [1] of over 710 nM, an IC50 (MGC-803) of 31 nM and an IC50 (HCT-116) of 44 nM. It also gave an IC50 (KYSE-30) of 65 nM.

c1ccc2c(-c3[nH]nnc3-c3ccc4sc5ccccc5c4c3)ccnc2c1 gave an IC50 (MGC-803) of over 10000 nM, an IC50 (HCT-116) of over 10000 nM and an IC50 (KYSE-30) of over 10000 nM.

For Cc1cc(-c2oncc2-c2ccc(OC(C)C)cc2)c2ccccc2n1, the IC50 (MGC-803) was 49 nM, the IC50 (HCT-116) was 133 nM and the IC50 (KYSE-30) was 226 nM.

For Cc1ccc(-c2nn[nH]c2-c2ccnc3ccccc23)cc1, the IC50 (MGC-803) was 5800 nM, the IC50 (HCT-116) was 3680 nM and the IC50 (KYSE-30) was 1650 nM.

c1ccc2c(-c3[nH]nnc3-c3ccc4[nH]c5ccccc5c4c3)ccnc2c1 showed an IC50 (MGC-803) of over 10000 nM, an IC50 (HCT-116) of over 10000 nM and an IC50 (KYSE-30) of over 10000 nM.

COc1cccc(-c2cnoc2-c2ccnc3ccccc23)c1 showed an IC50 (MGC-803) of 2530 nM, an IC50 (HCT-116) of 5420 nM and an IC50 (KYSE-30) of 4570 nM.

For COc1cccc(-c2[nH]nnc2-c2ccnc3ccccc23)c1, the IC50 (MGC-803) was over 10000 nM, the IC50 (HCT-116) was over 10000 nM and the IC50 (KYSE-30) was over 10000 nM.

For COc1ccc(-c2cnoc2-c2ccnc3ccccc23)cc1[N+](=O)[O-], the IC50 (MGC-803) was 28 nM, the IC50 (HCT-116) was 2320 nM and the IC50 (KYSE-30) was 194 nM.

With c1cc(-c2nn[nH]c2-c2ccnc3ccccc23)c2occc2c1 the IC50 (MGC-803) was over 10000 nM, the IC50 (HCT-116) was over 10000 nM and the IC50 (KYSE-30) was over 10000 nM.

Cc1ccccc1-c1nn[nH]c1-c1ccnc2ccccc12 showed an IC50 (MGC-803) of over 10000 nM, an IC50 (HCT-116) of over 10000 nM and an IC50 (KYSE-30) of over 10000 nM.

In the case of CCOc1ccc(-c2cnoc2-c2cc(C)nc3ccccc23)cc1, the IC50 at 48 h [1] is reported as over 710 nM, the Activity [2] is reported as “Non-Toxic” and the IC50 (MGC-803) is reported as 18 nM. The IC50 (HCT-116) was over 800 nM and the IC50 (KYSE-30) was 14 nM.

For COc1ccccc1-c1[nH]nnc1-c1ccnc2ccccc12, the IC50 (MGC-803) was over 10000 nM, the IC50 (HCT-116) was over 10000 nM and the IC50 (KYSE-30) was over 10000 nM.

Molecule Cc1cc(-c2[nH]ncc2-c2ccc(OC(C)C)cc2)c2ccccc2n1 has an IC50 (MGC-803) of 330 nM, an IC50 (HCT-116) of over 800 nM and an IC50 (KYSE-30) of over 800 nM.

c1ccc2c(-c3[nH]nnc3-c3ccc4sccc4c3)ccnc2c1 gave an IC50 (MGC-803) of over 10000 nM, an IC50 (HCT-116) of over 10000 nM and an IC50 (KYSE-30) of over 10000 nM.

Molecule COc1ccc(-c2cn[nH]c2-c2ccnc3ccccc23)cc1[N+](=O)[O-] has an IC50 (MGC-803) of 1980 nM, an IC50 (HCT-116) of over 10000 nM and an IC50 (KYSE-30) of over 2510 nM.

In the case of CCCOc1ccc(-c2cnoc2-c2ccnc3ccccc23)cc1, the IC50 (MGC-803) is reported as 435 nM, the IC50 (HCT-116) is reported as 603 nM and the IC50 (KYSE-30) is reported as 714 nM.

With CCCOc1ccc(-c2cnoc2-c2cc(C)nc3ccccc23)cc1 the IC50 (MGC-803) was 58 nM, the IC50 (HCT-116) was over 800 nM and the IC50 (KYSE-30) was over 800 nM.

Molecule c1ccc2c(-c3oncc3-c3ccc4c(c3)CCO4)ccnc2c1 has an IC50 (MGC-803) of 2120 nM, an IC50 (HCT-116) of over 10000 nM and an IC50 (KYSE-30) of 723 nM.

With CC(C)Oc1ccc(-c2cn[nH]c2-c2ccnc3ccccc23)cc1 the IC50 (MGC-803) was 4830 nM, the IC50 (HCT-116) was over 10000 nM and the IC50 (KYSE-30) was over 10000 nM.

COc1cccc(-c2cn[nH]c2-c2cc(C)nc3ccccc23)c1 gave an IC50 (MGC-803) of 293 nM, an IC50 (HCT-116) of 245 nM and an IC50 (KYSE-30) of 403 nM.

In the case of COc1ccc(-c2nn[nH]c2-c2ccnc3ccccc23)cc1O, the IC50 (MGC-803) is reported as 32 nM, the IC50 (HCT-116) is reported as 24 nM and the IC50 (KYSE-30) is reported as 21 nM.

With COc1ccccc1-c1cnoc1-c1cc(C)nc2ccccc12 the IC50 (MGC-803) was 1960 nM, the IC50 (HCT-116) was 8580 nM and the IC50 (KYSE-30) was 7530 nM.

Molecule COc1ccc(-c2[nH]nnc2-c2ccnc3ccccc23)cc1 has an IC50 (MGC-803) of 153 nM, an IC50 (HCT-116) of 773 nM and an IC50 (KYSE-30) of 1350 nM.

Molecule COc1ccccc1-c1cnoc1-c1ccnc2ccccc12 has an IC50 (MGC-803) of over 10000 nM, an IC50 (HCT-116) of over 10000 nM and an IC50 (KYSE-30) of over 10000 nM.

Work on CC(C)Oc1ccc(-c2cnoc2-c2ccnc3ccccc23)cc1 yielded an IC50 (MGC-803) of 489 nM, an IC50 (HCT-116) of 4500 nM and an IC50 (KYSE-30) of 1510 nM.

In the case of c1ccc2c(-c3[nH]ncc3-c3ccc4c(c3)CCO4)ccnc2c1, the IC50 (MGC-803) is reported as over 10000 nM, the IC50 (HCT-116) is reported as over 10000 nM and the IC50 (KYSE-30) is reported as 10000 nM.

With CCOc1ccc(-c2cnoc2-c2ccnc3ccccc23)cc1 the IC50 (MGC-803) was 14 nM, the IC50 (HCT-116) was 39 nM and the IC50 (KYSE-30) was 122 nM.

With COc1ccc(-c2cn[nH]c2-c2cc(C)nc3ccccc23)cc1 the IC50 at 48 h [1] was over 710 nM, the IC50 (MGC-803) was 39 nM and the IC50 (HCT-116) was 68 nM. The IC50 (KYSE-30) was 92 nM.
